Tests used:
[1] = molecular target: T1, Amine oxidase [flavin-containing] A (Homo sapiens, UniProt P21397); format: functional
T1 sequence (P21397 whole entry): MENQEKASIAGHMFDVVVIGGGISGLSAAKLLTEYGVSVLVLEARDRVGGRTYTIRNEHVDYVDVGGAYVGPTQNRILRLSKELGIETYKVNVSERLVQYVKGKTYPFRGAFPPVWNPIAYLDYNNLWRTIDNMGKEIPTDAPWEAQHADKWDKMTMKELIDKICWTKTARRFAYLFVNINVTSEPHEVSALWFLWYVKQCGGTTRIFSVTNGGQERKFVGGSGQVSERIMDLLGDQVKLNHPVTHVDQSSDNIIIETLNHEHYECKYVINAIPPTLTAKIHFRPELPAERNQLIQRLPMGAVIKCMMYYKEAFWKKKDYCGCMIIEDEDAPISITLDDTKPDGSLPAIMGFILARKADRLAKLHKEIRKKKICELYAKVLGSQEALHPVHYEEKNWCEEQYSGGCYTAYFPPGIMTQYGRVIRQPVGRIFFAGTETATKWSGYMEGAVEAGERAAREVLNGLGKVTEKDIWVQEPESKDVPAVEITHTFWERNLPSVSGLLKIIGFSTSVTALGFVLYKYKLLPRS

[2] = molecular target: T2, Alpha-1A adrenergic receptor (Homo sapiens, UniProt P35348); format: functional, cell-based
T2 sequence (P35348 whole entry): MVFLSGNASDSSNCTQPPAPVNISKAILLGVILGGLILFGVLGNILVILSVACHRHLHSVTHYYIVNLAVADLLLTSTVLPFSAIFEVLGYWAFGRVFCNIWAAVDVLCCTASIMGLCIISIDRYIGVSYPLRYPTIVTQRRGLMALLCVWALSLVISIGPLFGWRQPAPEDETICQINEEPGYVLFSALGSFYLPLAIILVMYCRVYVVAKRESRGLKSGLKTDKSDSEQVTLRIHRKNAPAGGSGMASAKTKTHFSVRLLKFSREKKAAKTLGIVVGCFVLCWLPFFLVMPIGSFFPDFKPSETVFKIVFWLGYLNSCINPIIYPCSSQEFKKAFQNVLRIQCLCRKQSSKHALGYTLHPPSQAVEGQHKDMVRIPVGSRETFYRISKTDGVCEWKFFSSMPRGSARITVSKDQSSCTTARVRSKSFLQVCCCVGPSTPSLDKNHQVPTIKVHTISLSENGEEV

[3] = molecular target: T3, Type-1 angiotensin II receptor (Homo sapiens, UniProt P30556)
T3 sequence (P30556 whole entry): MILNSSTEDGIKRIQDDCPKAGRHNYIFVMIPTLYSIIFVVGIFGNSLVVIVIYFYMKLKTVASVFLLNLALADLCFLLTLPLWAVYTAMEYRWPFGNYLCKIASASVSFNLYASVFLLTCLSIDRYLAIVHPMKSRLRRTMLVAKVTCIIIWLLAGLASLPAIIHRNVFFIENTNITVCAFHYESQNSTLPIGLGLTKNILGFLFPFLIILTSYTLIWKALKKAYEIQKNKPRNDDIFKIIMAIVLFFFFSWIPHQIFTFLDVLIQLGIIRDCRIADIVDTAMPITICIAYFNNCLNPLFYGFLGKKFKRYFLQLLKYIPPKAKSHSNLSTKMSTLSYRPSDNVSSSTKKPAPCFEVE

[4] = molecular target: Beta-2 adrenergic receptor (Homo sapiens, UniProt P07550)
Sequence of Beta-2 adrenergic receptor (P07550 whole entry): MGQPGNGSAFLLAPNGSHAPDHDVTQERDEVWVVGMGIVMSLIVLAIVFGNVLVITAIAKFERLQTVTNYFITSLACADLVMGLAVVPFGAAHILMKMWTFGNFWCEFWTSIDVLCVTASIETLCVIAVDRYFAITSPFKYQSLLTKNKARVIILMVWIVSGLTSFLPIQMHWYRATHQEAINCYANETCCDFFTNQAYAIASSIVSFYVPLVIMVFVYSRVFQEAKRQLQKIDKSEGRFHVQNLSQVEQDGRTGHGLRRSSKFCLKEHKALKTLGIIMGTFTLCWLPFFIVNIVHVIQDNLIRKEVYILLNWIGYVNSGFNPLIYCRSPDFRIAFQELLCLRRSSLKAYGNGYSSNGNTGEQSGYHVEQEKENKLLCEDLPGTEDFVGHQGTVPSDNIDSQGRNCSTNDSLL

Progesterone receptor = molecular target: T4, Progesterone receptor (Homo sapiens, UniProt P06401); format: functional
T4 sequence (P06401 whole entry): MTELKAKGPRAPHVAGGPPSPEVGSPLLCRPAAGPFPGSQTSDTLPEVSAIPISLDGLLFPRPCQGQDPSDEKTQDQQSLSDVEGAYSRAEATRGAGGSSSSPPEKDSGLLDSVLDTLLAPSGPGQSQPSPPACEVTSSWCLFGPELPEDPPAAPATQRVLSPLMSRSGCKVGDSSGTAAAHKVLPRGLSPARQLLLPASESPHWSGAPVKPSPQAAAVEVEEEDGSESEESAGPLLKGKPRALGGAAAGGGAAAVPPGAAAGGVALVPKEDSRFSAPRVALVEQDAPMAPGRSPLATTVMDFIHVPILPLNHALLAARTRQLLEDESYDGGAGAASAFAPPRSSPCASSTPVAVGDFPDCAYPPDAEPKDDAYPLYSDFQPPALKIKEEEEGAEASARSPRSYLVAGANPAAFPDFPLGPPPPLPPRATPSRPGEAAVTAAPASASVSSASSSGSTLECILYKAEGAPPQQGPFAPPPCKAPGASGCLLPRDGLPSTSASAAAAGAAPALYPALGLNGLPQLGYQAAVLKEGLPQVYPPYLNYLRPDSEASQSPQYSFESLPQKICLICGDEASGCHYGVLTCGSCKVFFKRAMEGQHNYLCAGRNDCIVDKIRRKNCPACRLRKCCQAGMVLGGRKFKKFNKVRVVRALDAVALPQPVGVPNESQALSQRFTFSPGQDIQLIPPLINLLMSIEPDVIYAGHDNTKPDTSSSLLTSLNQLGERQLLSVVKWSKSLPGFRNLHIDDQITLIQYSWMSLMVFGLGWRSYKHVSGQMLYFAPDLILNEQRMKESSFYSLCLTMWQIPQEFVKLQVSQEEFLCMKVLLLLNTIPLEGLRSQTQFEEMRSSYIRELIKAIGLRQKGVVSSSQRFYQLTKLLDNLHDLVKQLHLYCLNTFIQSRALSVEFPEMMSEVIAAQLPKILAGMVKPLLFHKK

Vasopressin V1a receptor = Vasopressin V1a receptor (Homo sapiens, UniProt P37288)
Sequence of Vasopressin V1a receptor (P37288 whole entry): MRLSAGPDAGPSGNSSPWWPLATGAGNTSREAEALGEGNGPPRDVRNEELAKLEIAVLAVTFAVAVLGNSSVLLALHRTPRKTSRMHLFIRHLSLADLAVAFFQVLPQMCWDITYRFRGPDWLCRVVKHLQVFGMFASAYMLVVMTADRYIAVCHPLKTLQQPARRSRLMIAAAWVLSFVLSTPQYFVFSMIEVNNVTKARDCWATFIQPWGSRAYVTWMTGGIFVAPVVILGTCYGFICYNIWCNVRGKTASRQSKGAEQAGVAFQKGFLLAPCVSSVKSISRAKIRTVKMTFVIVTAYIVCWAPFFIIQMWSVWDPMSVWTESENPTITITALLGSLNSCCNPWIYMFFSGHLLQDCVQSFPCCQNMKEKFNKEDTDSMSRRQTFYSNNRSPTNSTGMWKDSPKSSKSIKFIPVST

[5] = molecular target: Growth hormone secretagogue receptor type 1 (Homo sapiens, UniProt Q92847)
Sequence of Growth hormone secretagogue receptor type 1 (Q92847 whole entry): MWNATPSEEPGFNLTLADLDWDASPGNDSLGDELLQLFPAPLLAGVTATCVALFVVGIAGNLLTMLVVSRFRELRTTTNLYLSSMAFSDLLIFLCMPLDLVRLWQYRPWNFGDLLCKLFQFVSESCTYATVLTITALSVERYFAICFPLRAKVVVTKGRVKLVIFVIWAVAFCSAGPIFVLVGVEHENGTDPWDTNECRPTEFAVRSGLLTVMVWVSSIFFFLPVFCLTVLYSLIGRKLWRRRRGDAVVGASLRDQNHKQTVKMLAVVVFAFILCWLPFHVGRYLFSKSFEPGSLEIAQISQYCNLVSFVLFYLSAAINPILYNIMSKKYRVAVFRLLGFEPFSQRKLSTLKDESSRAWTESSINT

[6] = molecular target: cGMP-inhibited 3',5'-cyclic phosphodiesterase 3A (Homo sapiens, UniProt Q14432); format: functional
Sequence of cGMP-inhibited 3',5'-cyclic phosphodiesterase 3A (Q14432 whole entry): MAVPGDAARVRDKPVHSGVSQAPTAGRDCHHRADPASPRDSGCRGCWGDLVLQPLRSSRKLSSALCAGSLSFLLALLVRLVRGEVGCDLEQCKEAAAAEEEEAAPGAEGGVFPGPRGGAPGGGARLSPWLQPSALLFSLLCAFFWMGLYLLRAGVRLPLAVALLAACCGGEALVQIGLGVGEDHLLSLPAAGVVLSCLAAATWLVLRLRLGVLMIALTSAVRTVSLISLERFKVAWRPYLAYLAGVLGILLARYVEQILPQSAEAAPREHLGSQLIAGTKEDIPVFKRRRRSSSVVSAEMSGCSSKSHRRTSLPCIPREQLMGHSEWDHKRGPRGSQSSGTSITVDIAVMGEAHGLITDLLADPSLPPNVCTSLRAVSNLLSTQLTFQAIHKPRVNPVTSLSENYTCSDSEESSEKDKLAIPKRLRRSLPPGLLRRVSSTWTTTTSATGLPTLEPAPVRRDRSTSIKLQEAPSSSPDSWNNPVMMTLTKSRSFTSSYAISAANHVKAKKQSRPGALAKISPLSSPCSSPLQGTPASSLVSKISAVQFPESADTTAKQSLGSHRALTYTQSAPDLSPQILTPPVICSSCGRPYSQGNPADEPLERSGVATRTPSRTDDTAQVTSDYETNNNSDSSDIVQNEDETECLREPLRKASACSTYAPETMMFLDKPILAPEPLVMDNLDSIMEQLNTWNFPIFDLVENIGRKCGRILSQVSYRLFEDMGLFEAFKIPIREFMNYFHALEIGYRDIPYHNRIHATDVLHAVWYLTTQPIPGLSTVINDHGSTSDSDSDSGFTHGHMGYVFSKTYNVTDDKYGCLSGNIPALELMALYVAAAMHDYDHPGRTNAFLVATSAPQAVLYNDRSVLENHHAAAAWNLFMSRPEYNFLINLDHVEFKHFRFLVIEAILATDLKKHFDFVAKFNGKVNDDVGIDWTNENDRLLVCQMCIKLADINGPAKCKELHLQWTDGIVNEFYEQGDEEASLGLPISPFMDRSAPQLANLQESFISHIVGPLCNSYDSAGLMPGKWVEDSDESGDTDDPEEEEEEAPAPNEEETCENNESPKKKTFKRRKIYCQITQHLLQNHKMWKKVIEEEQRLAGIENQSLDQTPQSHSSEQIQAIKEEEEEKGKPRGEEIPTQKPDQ

[7] = molecular target: T5, Gastrin/cholecystokinin type B receptor (Homo sapiens, UniProt P32239)
T5 sequence (P32239 whole entry): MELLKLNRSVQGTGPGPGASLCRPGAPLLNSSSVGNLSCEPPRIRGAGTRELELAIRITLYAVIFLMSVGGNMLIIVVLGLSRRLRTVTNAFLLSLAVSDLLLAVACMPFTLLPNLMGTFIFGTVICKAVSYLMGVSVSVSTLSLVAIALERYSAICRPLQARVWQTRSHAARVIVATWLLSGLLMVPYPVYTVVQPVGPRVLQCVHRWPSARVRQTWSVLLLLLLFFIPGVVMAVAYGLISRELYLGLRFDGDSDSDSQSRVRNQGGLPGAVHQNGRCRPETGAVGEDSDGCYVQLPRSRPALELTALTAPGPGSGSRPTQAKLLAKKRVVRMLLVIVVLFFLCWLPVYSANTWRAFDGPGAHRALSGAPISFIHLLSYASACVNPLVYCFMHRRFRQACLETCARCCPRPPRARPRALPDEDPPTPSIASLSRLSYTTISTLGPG
Note: assay procedure not described here.

O=C1CN=C(c2ccccn2)c2cc(Br)ccc2N1 [BROMAZEPAM]
AC50 [1]: > 10 µM
AC50 [2]: 11 µM
AC50 [3]: > 10 µM
AC50 [4]: > 10 µM
AC50 (Progesterone receptor): > 10 µM
AC50 (Vasopressin V1a receptor): > 10 µM
AC50 [5]: > 10 µM
AC50 [6]: > 30 µM

O=C(O)c1ccccc1Nc1cc(Cl)ccc1C(=O)O [LOBENZARIT]
AC50 [2]: > 30 µM
AC50 [3]: > 30 µM
AC50 [4]: > 30 µM
AC50 [7]: > 10 µM
AC50 (Progesterone receptor): > 30 µM
AC50 (Vasopressin V1a receptor): > 30 µM
AC50 [5]: > 30 µM
AC50 [6]: > 30 µM

C[N@+]1(CCF)[C@@H]2CC[C@H]1C[C@@H](OC(=O)C(O)(c1ccccc1)c1ccccc1)C2
AC50 [1]: > 30 µM
AC50 [2]: > 30 µM
AC50 [3]: > 30 µM
AC50 [4]: > 30 µM
AC50 [7]: > 30 µM
AC50 (Progesterone receptor): > 30 µM
AC50 (Vasopressin V1a receptor): > 30 µM
AC50 [5]: > 30 µM
AC50 [6]: > 30 µM

C=C[C@@]1(C)CC(=O)[C@]2(O)[C@@]3(C)[C@@H](O)CCC(C)(C)[C@@H]3[C@H](O)[C@H](OC(C)=O)[C@@]2(C)O1 [COLFORSIN]
AC50 [1]: > 30 µM
AC50 [2]: > 30 µM
AC50 [3]: > 30 µM
AC50 [4]: > 30 µM
AC50 [7]: > 30 µM
AC50 (Progesterone receptor): > 30 µM
AC50 (Vasopressin V1a receptor): > 30 µM
AC50 [5]: > 30 µM
AC50 [6]: > 30 µM

CCC(COC(=O)c1cc(OC)c(OC)c(OC)c1)(c1ccccc1)N(C)C (centres undefined) [TRIMEBUTINE]
AC50 [1]: > 30 µM
AC50 [2]: > 30 µM
AC50 [3]: > 30 µM
AC50 [4]: > 30 µM
AC50 [7]: > 30 µM
AC50 (Progesterone receptor): > 30 µM
AC50 (Vasopressin V1a receptor): > 30 µM
AC50 [5]: > 30 µM
AC50 [6]: > 30 µM

NC1CCN(c2nc3c(cc2F)c(=O)c(C(=O)O)cn3-c2ccc(F)cc2F)C1 (centres undefined) [TOSUFLOXACIN]
AC50 [1]: > 30 µM
AC50 [2]: > 30 µM
AC50 [3]: > 30 µM
AC50 [4]: > 30 µM
AC50 [7]: > 30 µM
AC50 (Progesterone receptor): > 30 µM
AC50 [5]: > 30 µM
AC50 [6]: > 30 µM

O=C(O)CCNC(=O)c1ccccc1 [BETAMIPRON]
AC50 [1]: > 30 µM
AC50 [2]: > 30 µM
AC50 [3]: > 30 µM
AC50 [4]: > 30 µM
AC50 [7]: > 30 µM
AC50 (Progesterone receptor): > 30 µM
AC50 [5]: > 30 µM
AC50 [6]: > 30 µM

CC(=O)SC[C@@H](C)C(=O)N1CCC[C@H]1C(=O)N[C@@H](Cc1ccccc1)C(=O)O
AC50 [1]: > 30 µM
AC50 [2]: > 30 µM
AC50 [3]: > 30 µM
AC50 [4]: > 30 µM
AC50 [7]: > 30 µM
AC50 (Progesterone receptor): > 30 µM
AC50 (Vasopressin V1a receptor): > 30 µM
AC50 [5]: > 30 µM
AC50 [6]: > 30 µM

CCN(CC)CCNC(=O)c1cc(S(C)(=O)=O)ccc1OC [TIAPRIDE]
AC50 [1]: > 30 µM
AC50 [2]: > 30 µM
AC50 [3]: > 30 µM
AC50 [4]: > 30 µM
AC50 [7]: > 30 µM
AC50 (Progesterone receptor): > 30 µM
AC50 (Vasopressin V1a receptor): > 30 µM
AC50 [5]: > 30 µM
AC50 [6]: > 30 µM

CC1=C(C)C(=O)C(C(CCCCCC(=O)O)c2ccccc2)=C(C)C1=O (centres undefined) [SERATRODAST]
AC50 [1]: > 30 µM
AC50 [2]: > 30 µM
AC50 [3]: > 30 µM
AC50 [4]: > 30 µM
AC50 [7]: > 30 µM
AC50 (Progesterone receptor): > 30 µM
AC50 (Vasopressin V1a receptor): > 30 µM
AC50 [5]: > 30 µM
AC50 [6]: 25 µM

CCN(CC)C(=O)Nc1ccc(OCC(O)CNC(C)(C)C)c(C(C)=O)c1 (centres undefined) [CELIPROLOL]
AC50 [1]: > 30 µM
AC50 [2]: > 30 µM
AC50 [3]: > 30 µM
AC50 [4]: 4.6 µM
AC50 [7]: > 30 µM
AC50 (Progesterone receptor): > 30 µM
AC50 (Vasopressin V1a receptor): > 30 µM
AC50 [5]: > 30 µM
AC50 [6]: > 30 µM

CCCCCCCCCCCCCCCCCCCCCC(=O)Nc1ccn([C@@H]2O[C@H](CO)[C@@H](O)[C@@H]2O)c(=O)n1 [ENOCITABINE]
AC50 [1]: > 30 µM
AC50 [2]: > 30 µM
AC50 [3]: > 30 µM
AC50 [4]: > 30 µM
AC50 [7]: > 30 µM
AC50 (Progesterone receptor): > 30 µM
AC50 (Vasopressin V1a receptor): > 30 µM
AC50 [5]: > 30 µM
AC50 [6]: > 30 µM

C=C1/C(=C\C=C2/CCC[C@]3(C)[C@@H]([C@H](C)/C=C/[C@@H](O)C4CC4)CC[C@@H]23)C[C@@H](O)C[C@@H]1O [CALCIPOTRIENE]
AC50 [1]: > 30 µM
AC50 [2]: > 30 µM
AC50 [3]: > 30 µM
AC50 [4]: > 30 µM
AC50 [7]: > 30 µM
AC50 (Progesterone receptor): 20 µM
AC50 (Vasopressin V1a receptor): > 30 µM
AC50 [5]: > 30 µM
AC50 [6]: > 30 µM

COc1ccc(-c2noc(CC(=O)O)c2-c2ccc(OC)cc2)cc1 [MOFEZOLAC]
AC50 [2]: > 30 µM
AC50 [3]: > 30 µM
AC50 [4]: > 30 µM
AC50 [7]: > 10 µM
AC50 (Progesterone receptor): > 30 µM
AC50 (Vasopressin V1a receptor): > 30 µM
AC50 [5]: > 30 µM
AC50 [6]: 13 µM

CC(=O)O[C@H](CC(=O)[O-])C[N+](C)(C)C [ACETYLCARNITINE]
AC50 [2]: > 30 µM
AC50 [3]: > 30 µM
AC50 [4]: > 30 µM
AC50 [7]: > 30 µM
AC50 (Progesterone receptor): > 30 µM
AC50 (Vasopressin V1a receptor): > 30 µM
AC50 [5]: > 30 µM
AC50 [6]: > 30 µM

Reference: ChEMBL document CHEMBL5291721, “A preclinical secondary pharmacology resource illuminates target-adverse drug reaction associations of marketed drugs” (Nat Commun, 2023)
